Assay results published in patent US20090253589A1, “Method for Testing Active Compounds” (Nambition GmbH, priority 2006, published 2009).
Entries after “also recorded” stand apart in the source; their conditions may differ. Where two headings read alike, the source gives them in different places.

Experiments:
[1] = target: T1, rhodopsin Cys110-Cys187 disulfide bond (Bos taurus, UniProt P02699); experiment: SMFS of rhodopsin: ratio of 65 nm (intact Cys110-Cys187 bond) to 95 nm (absent bond) force-distance curves; design: species or system bovine; conditions: for effect on ratio of intact to broken Cys110-Cys187 disulfide bonds (65 nm vs 95 nm rhodopsin): increasing Zn^2+ concentrations, FIG. 4
T1 construct: ROS were purified from fresh bovine retinas as described [33]; from tissue; host or cells: bovine retina, rod outer segment (ROS) disc membranes
T1 sequence (P02699 whole entry): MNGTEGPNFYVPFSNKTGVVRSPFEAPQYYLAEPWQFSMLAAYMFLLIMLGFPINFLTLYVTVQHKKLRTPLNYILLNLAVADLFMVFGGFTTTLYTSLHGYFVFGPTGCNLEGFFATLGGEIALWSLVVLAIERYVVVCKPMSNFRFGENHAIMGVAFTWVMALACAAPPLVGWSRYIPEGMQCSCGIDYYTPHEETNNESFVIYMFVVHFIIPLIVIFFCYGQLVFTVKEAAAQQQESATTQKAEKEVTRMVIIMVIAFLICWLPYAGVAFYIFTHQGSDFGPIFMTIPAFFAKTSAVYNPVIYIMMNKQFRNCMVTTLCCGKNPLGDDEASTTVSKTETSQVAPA
Text: This is due to the fact that the loop not unraveled by SMFS in the Cys110-Cys187 form is unfolded in the 95 nm form.
These force spectra were obtained in substantial absence of zinc, since EDTA was used in the preparation of the ROS disc membranes.
The ratio of the Cys110-Cys187 rhodopsin force-distance curves and the 95 nm rhodopsin force-distance curves was changed in the presence of dithiothreitol and N-ethylmaleimide. The ratio of the 65 nm curves to the 95 nm curves was 1:2 in the presence of dithiothreitol and 7:1 in the presence of N-ethylmaleimide. Dithiothreitol likely disrupts the Cys110-Cys187 disulfide bond, and N-ethylmaleimide alkylates Cys 185. The action of these two compounds likely occurs during the unfolding of rhodopsin, since the residues modified by these reagents are not accessible in the native structure of the protein, as can be judged from the known crystal structure of rhodopsin.
AFM imaging and force spectroscopy were performed as described elsewhere. Disc membranes were adsorbed onto a freshly cleaved mica surface as described previously. For force measurements, the AFM stylus was approached to the Rh surface while applying a constant force of ˜1 nN. After a contact time of ˜0.5-1 s, the stylus was retracted from the membrane surface at a constant velocity of 300 nm/s. All experiments were performed in 150 mM KCl, 25 mM MgCl2, 20 mM Tris, pH 7.8, at room temperature. In experiments where rhodopsin was treated with 1 mM EDTA (Sigma), ZnCl2 (Fisher Scientific), CaCl2, CdCl2, CoCl2, or CuCl2, the buffer was supplemented with the specified amounts of the reagent and the pH adjusted to 7.8. When assayed with 0, 10, 25, 50, 100, 200 and 400 μM ZnCl2, rhodopsin in native ROS disc membranes was diluted in the dilution buffer with the required amount of ZnCl2 and incubated on ice for ˜40 mins—1 h in complete darkness. In the case of other metal ions the sample preparation was carried out in a similar way. In the experiment where 1 mM EDTA was used, 25 mM MgCl2 was not added to the buffer. All dilutions were carried out under dim red light and experiments performed in a completely dark room. Force curves were collected over a period of less than 1 h to prevent bleaching of rhodopsin. The red laser on the AFM promoted minimal bleaching of Rh. ROS membranes solubilized in n-dodecyl-β-D-maltoside were bleached less than 5% after incubation under the AFM laser for 1 hr.
In the first step, the force-distance curves were separated based on their lengths. […] The number of extended amino acid residues at each peak was then calculated using the contour length obtained from the WLC fits. […] To measure the unfolding force and probability of unfolding for each individual structural segment, every event of each curve was analyzed.

rhodopsin [2] = target: T2, rhodopsin (Bos taurus, UniProt P02699); experiment: Single-molecule force spectroscopy (AFM) unfolding of rhodopsin in native ROS disc membranes: unfolding forces and pathways; design: ROS were purified from fresh bovine retinas as described [33]; from tissue; host or cells: bovine retina, rod outer segment (ROS) disc membranes; species or system bovine
Target sequence in this assay (P02699 whole entry): as above

rhodopsin [3] = target: T2, rhodopsin; experiment: SMFS cleavage experiment: ROS membranes digested with endoproteinase Glu-C, fraction of curves by length; design: total number of curves obtained from the uncleaved native Rh sample; from tissue; host or cells: bovine retina ROS membranes, treated with endoproteinase Glu-C (Roche Applied Science); species or system bovine
Procedure: For cleavage experiments, ROS membranes (2 mg/mL) resuspended in Ringer's buffer (10 mM Hepes, 130 mM NaCl, 3.6 mM KCl, 2.4 mM MgCl2, 1.2 mM CaCl2, 0.02 mM EDTA, pH 7.4) were treated with endoproteinase Glu-C (Roche Applied Science, Indianapolis, Ind., USA) at a substrate to enzyme ratio of 10:1 (w/w). Membranes were digested with the enzyme for 2 h at room temperature and 1.5 h on ice. The reaction was terminated by washing membranes three times with Ringer's buffer containing 5 mM benzamidine (1 mL) and one time with buffer A (1 mL). Membranes were resuspended in buffer A for SMFS studies. For solubilization of rhodopsin (Rh), ROS membranes were resuspended in 20 mM BTP, 150 mM NaCl, 1% n-dodecyl-β-D-maltoside, pH 7.4. The membrane suspension was shaken at room temperature for 10 min and then centrifuged to remove insoluble material at 164,000×g for 30 min. Protein concentration was determined using the Bradford Protein Assay Kit from Bio-Rad Laboratories (Hercules, Calif., USA).
As mentioned above the molecule could detach from the AFM stylus during unfolding. Therefore, for the cleavage experiments with endoproteinase Glu-C it is important to be certain that the <40 nm length force-distance curves are mainly from the N-terminal fragment of the molecule and not from the detached molecule. […]
Target sequence in this assay (P02699 whole entry): as above
Target sequence in this assay (P02699 240-341 limits assumed): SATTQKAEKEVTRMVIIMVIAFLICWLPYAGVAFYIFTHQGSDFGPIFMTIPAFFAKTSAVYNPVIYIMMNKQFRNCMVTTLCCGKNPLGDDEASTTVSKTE

[4] = in the presence of N-ethylmaleimide
[5] = 200 μM metal ion in buffer, FIG. 3A
[6] = dark state rhodopsin, native ROS disc membranes

## CCN1C(=O)C=CC1=O [N-ethylmaleimide]
[1]; [4]
  fold increase in the proportion of the 65 nm curves: 3.5 fold
  fraction of total rhodopsin molecules that lack the Cys110-Cys187 bond: ⅛

## [Cl][Cd][Cl] [cadmium, CdCl2]
Rhodopsin [2]; [5]
  effect on stability of rhodopsin segments (difference in unfolding force relative to 0 μM Zn^2+): destabilize the majority of the segments
Rhodopsin [2]; 200 μM metal ion in buffer, FIG. 3A, listed as Cd^2+
  effect on stability of rhodopsin segments (difference in unfolding force relative to 0 μM Zn^2+): destabilize or have no effect on the majority of the segments

## [Ca+2].[Cl-].[Cl-] [calcium, CaCl2]
Rhodopsin [2]; [5]
  effect on stability of rhodopsin segments (difference in unfolding force relative to 0 μM Zn^2+): destabilize the majority of the segments
Rhodopsin [2]; 200 μM metal ion in buffer, FIG. 3A, listed as Ca^2+
  effect on stability of rhodopsin segments (difference in unfolding force relative to 0 μM Zn^2+): destabilize or have no effect on the majority of the segments

## [Cl-].[Cl-].[Co+2] [cobalt, CoCl2]
Rhodopsin [2]
  effect on stability of rhodopsin segments (difference in unfolding force relative to 0 μM Zn^2+): destabilize the majority of the segments; also recorded: destabilize or have no effect on the majority of the segments

## [Cl-].[Cl-].[Mg+2] [magnesium, MgCl2]
Rhodopsin [2]; 25 mM Mg^2+, FIG. 3B
  effect on the stability of rhodopsin: almost no effect

## [Cl-].[Cl-].[Zn+2] [zinc, ZnCl2]
Rhodopsin [2]; [5]
  effect on stability of rhodopsin segments (difference in unfolding force relative to 0 μM Zn^2+): stabilizes most segments of the receptor
Rhodopsin [2]; [6]
  zinc concentration above which the stability of rhodopsin increased: above 50 μM
  zinc concentration giving the highest stability of dark state rhodopsin: 200 µM
Rhodopsin [2]; zinc 10, 25, 50, 100, 200 and 400 μM, other metal ions 200 μM
  effect on occurrence probabilities of the unfolding pathways: leads to a change in the occurrence probabilities of the unfolding pathways
[1]
  effect on ratio of intact to broken Cys110-Cys187 disulfide bonds (65 nm vs 95 nm rhodopsin): favour the level of 65 nm rhodopsin
[1]; listed as Zn^2+
  effect on ratio of intact to broken Cys110-Cys187 disulfide bonds (65 nm vs 95 nm rhodopsin): clearly stabilizes the disulfide bond in a concentration dependent manner

## endoproteinase Glu-C: protease (Roche Applied Science) used to digest ROS membranes in cleavage experiments
Rhodopsin [3]; digested sample (untreated sample 23%)
  fraction of short curves (<40 nm) of the total curves: 55%
Rhodopsin [3]; enzymatically treated sample
  fraction of ≈65 nm and ≈95 nm long curves: 2%
